Test results reported in patent US3968204A, “Antibiotic A-2315” (priority 1975, dated 1976).
In brackets after ≈: the same amount, converted by molar mass.

What was measured:
[1] = test system: Shigella flexneri; assay: Disc-plate MIC; assay type: cell-based; conditions: Disc-Plate Method
[2] = test system: Staphylococcus aureus 3055; assay: Agar-dilution MIC; assay type: cell-based; conditions: Agar-Dilution Method, benzylpenicillin-susceptible
[3] = test system: Staphylococcus aureus 3074; assay: Agar-dilution MIC; assay type: cell-based
[4] = test system: Streptococcus faecalis; assay: Agar-dilution MIC; assay type: cell-based; conditions: Enterococcus faecalis; Agar-Dilution Method
[5] = test system: Erwinia amylovora; assay: Agar-dilution MIC; assay type: cell-based; conditions: Agar-Dilution Method
[6] = test system: Actinomyces bovis; assay: MIC, anaerobic bacteria; assay type: cell-based
[7] = test system: Clostridium perfringens; assay: microbe, parasite or virus in culture; assay type: cell-based
[8] = test system: Peptococcus anaerobius; assay: MIC, anaerobic bacteria; assay type: cell-based
[9] = test system: Propionibacterium acnes; assay: MIC, anaerobic bacteria; assay type: cell-based; conditions: Cutibacterium acnes
[10] = test system: Streptococcus pyogenes; assay: Protection of mice against experimental bacterial infection; assay type: in vivo; conditions: sc, subcutaneous, two doses
Description: (§1) When two doses each of A-2315 factors were administered to mice in illustrative infections, the ED50 values [effective dose in mg/kg to protect 50 percent of the test aninals; see Warren Wick, et al., J. Bacteriol.

[11] = Acute toxicity in mice; assay type: in vivo
Description: The acute toxicity of antibiotic A-2315 factor A, administered either orally or subcutaneously to mice and expressed as LDo, is greater than 500 mg./kg. The acute toxicities of the A-2315 factors, administered intraperitoneally to mice and expressed as LD50 are as follows: […]

[12] = Growth performance of growing chicks; assay type: in vivo; conditions: 45.4 grams/ton in diet
Description: Still another useful property of the A-2315 antibiotics is their ability to improve growth performance in animals. For example, when A-2315 factor A was added to the diet of growing chicks at a level of 45.4 grams/ton, the average weight gain after 10 days was 159 grams, as compared with an average weight gain of 148 grams for the control group. The feed-conversion efficiency (feed/gain) for chickens fed antibiotic A-2315 factor A was 1.44; in contrast, the feed-conversion efficiency for the control group was 1.53.

[13] = test system: Ruminal VFA; assay: Ruminal volatile fatty acids in vitro; parameters: species or system steer; conditions: 16 hours, 38°C
Description: Rumen fluid is obtained from a steer with a surgically-installed fistula opening into the rumen. The steer is maintained on a high-grain ration, the composition of which follows:
A sample of rumen fluid is strained through four layers of cheesecloth, and the filtrate is collected. The particulate matter retained by the cheesecloth is resuspended in enough physiological buffer to return it to the original volume of the rumen fluid, and this suspension is strained again. The buffer used has the following composition:
The two filtrates are combined and allowed to stand until particulate matter separates to the top. The clear layer is separated, diluted with the same buffer (1:1) and then adjusted to pH 7.0.
The diluted rumen fluid (10 ml) is placed in a 25-ml flask with 40 mg of the above-described feed, an additional 5 mg of soybean protein, and the test compound. Four replicate flasks are used per treatment. Two sets of four control flasks each are also employed. A zero-time control and an incubated 16-hour control are used. All test flasks are incubated for 16 hours at 38°C. After incubation, the pH is measured; and 25 percent metaphosphoric acid (2 ml) is added to each flask. The samples are allowed to settle, and the supernatant is analyzed by gas chromatography for propionate, acetate, butyrate compounds.
Test-compound results are statistically compared with control results.

[14] = test system: Ruminal VFA; assay: Ruminal volatile fatty acids in vivo in fistulated lambs; parameters: species or system sheep; conditions: 17 days
Description: Further evidence of the ability of the A-2315 antibiotics to increase feed-utilization efficiency is provided by an in vivo test of A-2315 factor A in sheep, using a procedure as follows:
Two groups of fistulated lambs are allowed slightly more than their normal feed ration for 17 days. Test compound is administered to one group in the feed on a g/ton basis.
The rumen fluids of both groups of animals are sampled on days 3, 7, 10, 14 and 17 of the treatment period.
The fermentation of the ruminal samples is halted by addition of meta-phosphoric acid. Each sample is diluted, centrifuged at 2000 × gravity for 10 minutes; the supernatants are analyzed for volatile fatty acids via the gas chromatographic method of E. S. Erwin, G. J. Marco and E. M. Emery in J. Dairy Sci., 44, 1768 (1966). Molar percentages of ruminal volatile fatty acids are calculated, and the effect is measured as a comparison of the molar percentages of propionic acid in treated animals to those in contemporary controls.

[15] = test system: bean rust (Uromyces phaseoli var. typica); assay: Plant-fungicidal activity on bean plants; assay type: in vivo; conditions: 400 ppm
Description: In yet another aspect of the invention, the A-2315 antibiotics are useful as plant-fungicidal agents.

[16] = test system: experimental bacterial infections; assay: In vivo antimicrobial action in mice; conditions: subcutaneous injection
Description: as §1

[17] = test system: Staphylococcus aureus 3130; assay: Disc-plate MIC; conditions: Disc-Plate Method; benzylpenicillin-resistant, methicillin-resistant
[18] = test system: Streptococcus pyogenes; assay: Disc-plate MIC; conditions: Disc-Plate Method
[19] = test system: Sarcina lutea; assay: Disc-plate MIC; conditions: Disc-Plate Method
[20] = test system: Proteus sp.; assay: Disc-plate MIC; conditions: Disc-Plate Method
[21] = test system: Klebsiella pneumoniae KA14; assay: Disc-plate MIC; conditions: Disc-Plate Method
[22] = test system: Candida albicans; assay: Disc-plate MIC; conditions: Disc-Plate Method
[23] = 0.1 mcg per ml diluted rumen fluid
[24] = 0.3 mcg per ml diluted rumen fluid
[25] = 1.0 mcg per ml diluted rumen fluid

Question: Which results are given for `CC1=CC(O)CC(O)Cc2nc(co2)C(=O)NC(C)C(=O)OC(C(C)C)C(C)C=CC(=O)NCC=C1` (stereo not shown) [Factor A]?
Answer: MIC [1]: 1.56 μg/disc; MIC [2]: 6.25 µg/mL (≈ 12.4 µM); MIC [3]: 1.56 µg/mL (≈ 3.1 µM); MIC [4]: 1.56 µg/mL (≈ 3.1 µM); MIC [5]: 50 µg/mL (≈ 99.3 µM); MIC [6]: 16 µg/mL (≈ 31.8 µM); MIC [7]: 32 µg/mL (≈ 63.5 µM); MIC [8]: 2 µg/mL (≈ 3.97 µM); MIC [9]: 8 µg/mL (≈ 15.9 µM); ED50 ([10]; Test I, challenge 10,000 × LD50 (ip)): 83 mg/kg; ED50 ([10]; Test II): 27.4 mg/kg; LD50 ([11]; mouse, in vivo, ip, intraperitoneally): > 400 mg/kg; acute toxicity, LDo ([11]; orally): greater than 500 mg./kg.; acute toxicity, LDo ([11]; subcutaneously): greater than 500 mg./kg.; average weight gain ([12]; after 10 days, control 148 grams): 159 grams; feed-conversion efficiency (feed/gain) ([12]; control 1.53): 1.44; Acetate, ratio of VFA concentration treated to control [13, 23]: 0.97; Butyrate, ratio of VFA concentration treated to control [13, 23]: 1.01; Propionate, ratio of VFA concentration treated to control [13, 23]: 1.07; Total VFA, ratio of concentration treated to control [13, 23]: 1.04; Acetate, ratio of VFA concentration treated to control [13, 24]: 0.95; Butyrate, ratio of VFA concentration treated to control [13, 24]: 1.00; Propionate, ratio of VFA concentration treated to control [13, 24]: 1.08; Total VFA, ratio of concentration treated to control [13, 24]: 1.07; Acetate, ratio of VFA concentration treated to control [13, 25]: 0.95; Butyrate, ratio of VFA concentration treated to control [13, 25]: 1.04; Propionate, ratio of VFA concentration treated to control [13, 25]: 1.15; Total VFA, ratio of concentration treated to control [13, 25]: 1.05; % Increase Over Control (propionic acid) ([14]; 15g/ton in feed): 4.8%; % Increase over Control (butyric acid) ([14]; 15g/ton in feed): 2.4%; Increase Relative to Control (butyric acid) ([14]; 15g/ton in feed): 21.6%; Increase Relative to Control (propionic acid) ([14]; 15g/ton in feed): 18.2%; % Butyric Acid Conc. ([14]; 15 g/ton in feed, control 11.1): 13.5%; % Propionic Acid Conc. ([14]; 15g/ton in feed, control 26.2): 31.0%; protection of bean plants [15]: protected; phytotoxicity ([15]; bean plants): Only slight phytotoxicity; in vivo antimicrobial action [16]: have shown in vivo antimicrobial action; MIC [17]: 0.2 μg/disc; MIC [18]: 0.012 μg/disc; MIC [19]: 0.008 μg/disc; MIC [20]: 100. μg/disc; MIC [21]: 50.0 μg/disc; MIC [22]: 100.0 μg/disc
